biological target: T1, Aminopeptidase N (Sus scrofa, UniProt P15145); assay: Inhibition of pig kidney microsomal Aminopeptidase N; details: not given
T1 sequence (P15145 whole entry): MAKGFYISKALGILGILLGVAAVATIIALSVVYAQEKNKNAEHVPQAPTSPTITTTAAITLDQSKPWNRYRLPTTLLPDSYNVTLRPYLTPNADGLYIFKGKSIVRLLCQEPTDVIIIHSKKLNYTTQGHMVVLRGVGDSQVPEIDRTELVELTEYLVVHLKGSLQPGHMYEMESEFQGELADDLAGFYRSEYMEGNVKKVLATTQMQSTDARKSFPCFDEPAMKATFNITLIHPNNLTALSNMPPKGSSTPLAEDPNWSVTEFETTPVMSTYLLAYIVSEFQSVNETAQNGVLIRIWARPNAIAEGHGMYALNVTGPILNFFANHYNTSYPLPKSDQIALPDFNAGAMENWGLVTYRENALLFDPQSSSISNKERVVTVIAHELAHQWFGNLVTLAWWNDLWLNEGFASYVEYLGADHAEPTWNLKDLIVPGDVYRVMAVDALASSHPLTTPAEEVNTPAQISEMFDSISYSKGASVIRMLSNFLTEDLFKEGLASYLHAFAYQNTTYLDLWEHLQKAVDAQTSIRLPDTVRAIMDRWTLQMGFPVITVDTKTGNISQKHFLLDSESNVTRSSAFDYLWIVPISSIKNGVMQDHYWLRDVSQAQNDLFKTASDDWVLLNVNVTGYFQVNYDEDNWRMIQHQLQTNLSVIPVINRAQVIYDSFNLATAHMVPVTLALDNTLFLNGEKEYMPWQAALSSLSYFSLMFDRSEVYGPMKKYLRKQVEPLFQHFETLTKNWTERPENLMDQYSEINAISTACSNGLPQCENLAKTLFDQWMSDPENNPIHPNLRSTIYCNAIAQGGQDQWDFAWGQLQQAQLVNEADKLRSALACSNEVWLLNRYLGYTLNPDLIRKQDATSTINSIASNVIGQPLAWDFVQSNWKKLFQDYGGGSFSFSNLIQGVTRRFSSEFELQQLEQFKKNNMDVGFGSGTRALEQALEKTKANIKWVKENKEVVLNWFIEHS

| IC50 | SMILES |
| --- | --- |
| 160 µM | CC(C)[C@H](NC(=O)[C@H](N)[C@@H](O)c1ccc([N+](=O)[O-])cc1)C(=O)O |
| 233 µM | CCCCNC(=O)[C@H](N)[C@@H](O)c1ccc([N+](=O)[O-])cc1 |
| 183 µM | CCCNC(=O)[C@H](N)[C@@H](O)c1ccc([N+](=O)[O-])cc1 |
| 251 µM | N[C@@H](C(=O)NC1CCCCC1)[C@@H](O)c1ccc([N+](=O)[O-])cc1 |
| 522 µM | CCCCCNC(=O)[C@H](N)[C@@H](O)c1ccc([N+](=O)[O-])cc1 |
| 2890 µM | N[C@@H](C(=O)NCCCC(=O)O)[C@@H](O)c1ccc([N+](=O)[O-])cc1 |
| 140 µM | N[C@@H](C(=O)O)[C@@H](O)c1ccc([N+](=O)[O-])cc1 |
| 85.6 µM | CC(C)C[C@H](NC(=O)[C@H](N)[C@@H](O)c1ccc([N+](=O)[O-])cc1)C(=O)O |
| 251 µM | CC(C)NC(=O)[C@H](N)[C@@H](O)c1ccc([N+](=O)[O-])cc1 |

The remaining lines, values behind:

| SMILES | IC50 |
| --- | --- |
| COc1ccc(CNC(=O)[C@H](N)[C@@H](O)c2ccc([N+](=O)[O-])cc2)cc1 | 145 µM |
| N[C@@H](C(=O)NCCCCCC(=O)O)[C@@H](O)c1ccc([N+](=O)[O-])cc1 | 1390 µM |
| N[C@@H](C(=O)N[C@@H](Cc1ccccc1)C(=O)O)[C@@H](O)c1ccc([N+](=O)[O-])cc1 | 60.4 µM |
| N[C@@H](C(=O)NCCc1ccccc1Cl)[C@@H](O)c1ccc([N+](=O)[O-])cc1 | 137 µM |
| N[C@@H](C(=O)N[C@@H](Cc1ccccc1)C(=O)N[C@@H](Cc1ccccc1)C(=O)O)[C@@H](O)c1ccc([N+](=O)[O-])cc1 | 7.1 µM |
| N[C@@H](C(=O)N[C@@H](Cc1ccccc1)C(=O)NO)[C@@H](O)c1ccc([N+](=O)[O-])cc1 | 31.3 µM |
| CC(C)C[C@H](NC(=O)[C@H](N)[C@@H](O)c1ccc([N+](=O)[O-])cc1)C(=O)NO | 54 µM |
| N[C@@H](C(=O)NCCc1ccc2c(c1)OCO2)[C@@H](O)c1ccc([N+](=O)[O-])cc1 | 90.3 µM |
| N[C@@H](C(=O)NCc1ccccc1)[C@@H](O)c1ccc([N+](=O)[O-])cc1 | 170 µM |
| N[C@@H](C(=O)NCc1ccc(F)cc1)[C@@H](O)c1ccc([N+](=O)[O-])cc1 | 302 µM |
| N[C@@H](C(=O)NCCc1ccccc1)[C@@H](O)c1ccc([N+](=O)[O-])cc1 | 106 µM |
| N[C@@H](C(=O)N[C@H](CO)Cc1ccccc1)[C@@H](O)c1ccc([N+](=O)[O-])cc1 | 116 µM |
| N[C@@H](C(=O)NCCc1ccc(O)cc1)[C@@H](O)c1ccc([N+](=O)[O-])cc1 | 51.4 µM |
| N[C@@H](C(=O)N[C@@H](Cc1cc2ccccc2[nH]1)C(=O)O)[C@@H](O)c1ccc([N+](=O)[O-])cc1 | 162 µM |
| CC(C)C[C@H](NC(=O)[C@H](N)[C@@H](O)c1ccc([N+](=O)[O-])cc1)C(=O)N[C@@H](Cc1ccccc1)C(=O)O | 34.6 µM |

system: HL-60; assay: cells; details: Homo sapiens, HL-60, 48 h
Description: Antiproliferative activity against human HL60 cells after 48 hrs by MTT assay

| SMILES | IC50 |
| --- | --- |
| CC(C)C[C@H](NC(=O)[C@@H](O)[C@H](N)Cc1ccccc1)C(=O)O [UBENIMEX] | 1650 µM |
| N[C@@H](C(=O)N[C@@H](Cc1ccccc1)C(=O)N[C@@H](Cc1ccccc1)C(=O)O)[C@@H](O)c1ccc([N+](=O)[O-])cc1 | 2210 µM |
| CC(C)C[C@H](NC(=O)[C@H](N)[C@@H](O)c1ccc([N+](=O)[O-])cc1)C(=O)N[C@@H](Cc1ccccc1)C(=O)O | 2020 µM |

From ChEMBL document CHEMBL1137765, “Design and synthesis of novel chloramphenicol amine derivatives as potent aminopeptidase N (APN/CD13) inhibitors” (Bioorg Med Chem, 2009)
